{"source": "patent US8143263B2", "about": "“Therapeutic agents” (Astrazeneca AB, priority 2008, dated 2012)"}
{"molecular_target": "T1, recombinant human pancreatic GLK (Homo sapiens, UniProt P35557)", "T1 sequence (P35557 1-465)": "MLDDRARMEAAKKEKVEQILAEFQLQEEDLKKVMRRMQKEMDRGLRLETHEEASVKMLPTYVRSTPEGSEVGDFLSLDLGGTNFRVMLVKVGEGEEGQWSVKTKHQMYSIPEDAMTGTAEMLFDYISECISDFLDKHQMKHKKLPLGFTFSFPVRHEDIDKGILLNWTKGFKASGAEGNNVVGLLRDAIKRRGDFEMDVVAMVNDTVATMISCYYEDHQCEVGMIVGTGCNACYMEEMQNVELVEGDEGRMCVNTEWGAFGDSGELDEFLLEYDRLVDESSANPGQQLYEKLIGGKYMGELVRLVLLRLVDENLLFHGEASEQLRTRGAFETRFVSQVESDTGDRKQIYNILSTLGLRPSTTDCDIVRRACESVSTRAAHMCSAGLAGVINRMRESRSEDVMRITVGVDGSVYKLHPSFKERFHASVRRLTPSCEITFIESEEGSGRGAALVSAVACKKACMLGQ", "assay": "biochemical", "units": {"EC50": "nM"}}
{"smiles": "Cc1cnc(NC(=O)[C@H](COC2CCC2)Oc2ncnc3c2cnn3-c2cccnc2C)cn1", "note": "[Example 149, (2S)-3-cyclobutoxy-N-(5-methylpyrazin-2-yl)-2-(1-(2-methylpyridin-3-yl)-1H-pyrazolo[3,4-d]pyrimidin-4-yloxy)propanamide]", "EC50": 660}
{"smiles": "CCOC[C@H](Oc1ncnc2c1cnn2-c1cccnc1C)C(=O)Nc1ccc(Cl)cn1", "note": "[Example 150, (2S)—N-(5-chloropyridin-2-yl)-3-ethoxy-2-(1-(2-methylpyridin-3-yl)-1H-pyrazolo[3,4-d]pyrimidin-4-yloxy)propanamide]", "EC50": 1000}
{"smiles": "COC[C@H](C)OC[C@H](Oc1ncnc2c1cnn2-c1ccccc1Cl)C(=O)Nc1ccc(C)cn1", "note": "[Example 152, (2S)-2-(1-(2-chlorophenyl)-1H-pyrazolo[3,4-d]pyrimidin-4-yloxy)-3-((S)-1-methoxypropan-2-yloxy)-N-(5-methylpyridin-2-yl)propanamide]", "EC50": 490}
{"smiles": "COC[C@@H](C)OC[C@H](Oc1ncnc2c1cnn2-c1ccccc1Cl)C(=O)Nc1ccc(C)cn1", "note": "[Example 153, (2S)-2-(1-(2-chlorophenyl)-1H-pyrazolo[3,4-d]pyrimidin-4-yloxy)-3-((R)-1-methoxypropan-2-yloxy)-N-(5-methylpyridin-2-yl)propanamide]", "EC50": 280}
{"smiles": "COC[C@@H](C)OC[C@H](Oc1ncnc2c1cnn2-c1ncccc1Cl)C(=O)Nc1ccc(C)cn1", "note": "[Example 154, (2S)-2-(1-(3-chloropyridin-2-yl)-1H-pyrazolo[3,4-d]pyrimidin-4-yloxy)-3-((R)-1-methoxypropan-2-yloxy)-N-(5-methylpyridin-2-yl)propanamide]", "EC50": 1200}
{"smiles": "COC[C@@H](C)OC[C@H](Oc1ncnc2c1cnn2-c1ccccc1Cl)C(=O)Nc1cnc(C)cn1", "note": "[Example 155, (2S)-2-(1-(2-chlorophenyl)-1H-pyrazolo[3,4-d]pyrimidin-4-yloxy)-3-((R)-1-methoxypropan-2-yloxy)-N-(5-methylpyrazin-2-yl)propanamide]", "EC50": 760}
{"smiles": "Cc1cnc(NC(=O)[C@H](COC2CCC2)Oc2ncnc3c2cnn3-c2ccccc2Cl)cn1", "note": "[Example 156, (2S)-2-(1-(2-chlorophenyl)-1H-pyrazolo[3,4-d]pyrimidin-4-yloxy)-3-cyclobutoxy-N-(5-methylpyrazin-2-yl)propanamide]", "EC50": 87}
{"smiles": "Cc1cnc(NC(=O)[C@H](COC2CCC2)Oc2ncnc3c2cnn3-c2ncccc2Cl)cn1", "note": "[Example 157, (2S)-2-(1-(3-chloropyridin-2-yl)-1H-pyrazolo[3,4-d]pyrimidin-4-yloxy)-3-cyclobutoxy-N-(5-methylpyrazin-2-yl)propanamide]", "EC50": 140}
{"smiles": "Cc1ccc(NC(=O)[C@H](COC2CCC2)Oc2ncnc3c2cnn3-c2ncccc2Cl)nc1", "note": "[Example 158, (2S)-2-(1-(3-chloropyridin-2-yl)-1H-pyrazolo[3,4-d]pyrimidin-4-yloxy)-3-cyclobutoxy-N-(5-methylpyridin-2-yl)propanamide]", "EC50": 150}
{"smiles": "CC(=O)OCC[C@H](Oc1ncnc2c1cnn2-c1ncccc1Cl)C(=O)Nc1ccc(C)cn1", "note": "[Example 159, [(3S)-3-[1-(3-chloropyridin-2-yl)pyrazolo[4,5-e]pyrimidin-4-yl]oxy-4-[(5-methylpyridin-2-yl)amino]-4-oxobutyl]acetate]", "EC50": 850}
{"smiles": "Cc1ccc(NC(=O)[C@H](COC(C)C)Oc2ncnc3c2cnn3-c2ccccc2C(F)(F)F)nc1", "note": "[Example 160, (2S)-3-isopropoxy-N-(5-methylpyridin-2-yl)-2-(1-(2-(trifluoromethyl)phenyl)-1H-pyrazolo[3,4-d]pyrimidin-4-yloxy)propanamide]", "EC50": 280}
{"smiles": "Cc1ccc(NC(=O)[C@H](CCS(C)(=O)=O)Oc2ncnc3c2cnn3-c2ccccc2Cl)nc1", "note": "[Example 161, -(2S)-2-(1-(2-chlorophenyl)-1H-pyrazolo[3,4-d]pyrimidin-4-yloxy)-N-(5-methylpyridin-2-yl)-4-(methylsulfonyl)butanamide]", "EC50": 610}
{"smiles": "N#Cc1ccc(NC(=O)[C@H](COCCO)Oc2ncnc3c2cnn3-c2ncccc2Cl)nc1", "note": "[Example 162, (2S)-2-(1-(3-chloropyridin-2-yl)-1H-pyrazolo[3,4-d]pyrimidin-4-yloxy)-N-(5-cyanopyridin-2-yl)-3-(2-hydroxyethoxy)propanamide]", "EC50": 1500}
{"smiles": "O=C(Nc1ccc(Cl)cn1)[C@H](COCCO)Oc1ncnc2c1cnn2-c1ncccc1Cl", "note": "[Example 163, (2S)—N-(5-chloropyridin-2-yl)-2-(1-(3-chloropyridin-2-yl)-1H-pyrazolo[3,4-d]pyrimidin-4-yloxy)-3-(2-hydroxyethoxy)propanamide]", "EC50": 580}
{"smiles": "Cc1ccc(NC(=O)[C@H](CCNS(C)(=O)=O)Oc2ncnc3c2cnn3-c2ccccc2Cl)nc1", "note": "[Example 164, (2S)-2-(1-(2-chlorophenyl)-1H-pyrazolo[3,4-d]pyrimidin-4-yloxy)-N-(5-methylpyridin-2-yl)-4-(methylsulfonamido)butanamide]", "EC50": 930}
{"smiles": "O=C(Nc1ccc(Cl)cn1)[C@H](CN1CC(O)C1)Oc1ncnc2c1cnn2-c1ncccc1Cl", "note": "[Example 165, (2S)—N-(5-chloropyridin-2-yl)-2-[1-(3-chloropyridin-2-yl)pyrazolo[4,5-e]pyrimidin-4-yl]oxy-3-(3-hydroxyazetidin-1-yl)propanamide]", "EC50": 370}
{"smiles": "Cc1c(Cl)cccc1-n1ncc2c(O[C@@H](COCCO)C(=O)Nc3ccc(C#N)cn3)ncnc21", "note": "[Example 166, (2S)-2-[1-(3-chloro-2-methylphenyl)pyrazolo[4,5-e]pyrimidin-4-yl]oxy-N-(5-cyanopyridin-2-yl)-3-(2-hydroxyethoxy)propanamide]", "EC50": 2900}
{"smiles": "Cc1ccc(NC(=O)[C@H](COCCO)Oc2ncnc3c2cnn3-c2cccc(Cl)c2C)nc1", "note": "[Example 167, (2S)-2-[1-(3-chloro-2-methylphenyl)pyrazolo[4,5-e]pyrimidin-4-yl]oxy-3-(2-hydroxyethoxy)-N-(5-methylpyridin-2-yl)propanamide]", "EC50": 1100}
{"smiles": "Cc1c(F)cccc1-n1ncc2c(O[C@@H](COCCO)C(=O)Nc3ccc(C#N)cn3)ncnc21", "note": "[Example 168, (2S)—N-(5-cyanopyridin-2-yl)-2-[1-(3-fluoro-2-methylphenyl)pyrazolo[4,5-e]pyrimidin-4-yl]oxy-3-(2-hydroxyethoxy)propanamide]", "EC50": 3900}
{"smiles": "Cc1c(F)cccc1-n1ncc2c(O[C@@H](COCCO)C(=O)Nc3ccc(Cl)cn3)ncnc21", "note": "[Example 170, (2S)—N-(5-chloropyridin-2-yl)-2-[1-(3-fluoro-2-methylphenyl)pyrazolo[4,5-e]pyrimidin-4-yl]oxy-3-(2-hydroxyethoxy)propanamide]", "EC50": 1500}
{"smiles": "O=C(Nc1ccc(Cl)cn1)[C@H](COCCO)Oc1ncnc2c1cnn2-c1ccccc1Cl", "note": "[Example 171, (2S)-2-[1-(2-chlorophenyl)pyrazolo[4,5-e]pyrimidin-4-yl]oxy-N-(5-chloropyridin-2-yl)-3-(2-hydroxyethoxy)propanamide]", "EC50": 330}
{"smiles": "N#Cc1ccc(NC(=O)[C@H](COCCO)Oc2ncnc3c2cnn3-c2ccccc2Cl)nc1", "note": "[Example 172, (2S)-2-[1-(2-chlorophenyl)pyrazolo[4,5-e]pyrimidin-4-yl]oxy-N-(5-cyanopyridin-2-yl)-3-(2-hydroxyethoxy)propanamide]", "EC50": 810}
{"smiles": "Cc1c(Cl)cccc1-n1ncc2c(O[C@@H](COCCO)C(=O)Nc3ccc(Cl)cn3)ncnc21", "note": "[Example 173, (2S)-2-[1-(3-chloro-2-methylphenyl)pyrazolo[4,5-e]pyrimidin-4-yl]oxy-N-(5-chloropyridin-2-yl)-3-(2-hydroxyethoxy)propanamide]", "EC50": 920}
{"smiles": "N#Cc1cccc(Cl)c1-n1ncc2c(O[C@@H](COCCO)C(=O)Nc3ccc(Cl)cn3)ncnc21", "note": "[Example 174, (2S)-2-(1-(2-chloro-6-cyanophenyl)-1H-pyrazolo[3,4-d]pyrimidin-4-yloxy)-N-(5-chloropyridin-2-yl)-3-(2-hydroxyethoxy)propanamide]", "EC50": 230}
{"smiles": "Cc1ccc(NC(=O)[C@H](CO[C@H](C)CO)Oc2ncnc3c2cnn3-c2c(Cl)cccc2C#N)nc1", "note": "[Example 175, (2S)-2-(1-(2-chloro-6-cyanophenyl)-1H-pyrazolo[3,4-d]pyrimidin-4-yloxy)-3-((R)-1-hydroxypropan-2-yloxy)-N-(5-methylpyridin-2-yl)propanamide]", "EC50": 270}
{"smiles": "Cc1ccc(NC(=O)[C@H](COCCO)Oc2ncnc3c2cnn3-c2c(Cl)cccc2C#N)nc1", "note": "[Example 176, (2S)-2-(1-(2-chloro-6-cyanophenyl)-1H-pyrazolo[3,4-d]pyrimidin-4-yloxy)-3-(2-hydroxyethoxy)-N-(5-methylpyridin-2-yl)propanamide]", "EC50": 380}
{"smiles": "CC(C)OC[C@H](Oc1ncnc2c1cnn2-c1ncccc1Cl)C(=O)Nc1ccc(S(C)(=O)=O)cn1", "note": "[Example 177, (2S)-2-(1-(3-chloropyridin-2-yl)-1H-pyrazolo[3,4-d]pyrimidin-4-yloxy)-3-isopropoxy-N-(5-(methylsulfonyl)pyridin-2-yl)propanamide]", "EC50": 1500}
{"smiles": "CC(C)OC[C@H](Oc1ncnc2c1cnn2-c1ncccc1Cl)C(=O)Nc1ccc(C(=O)N(C)C)cn1", "note": "[Example 178, 6-((2S)-2-(1-(3-chloropyridin-2-yl)-1H-pyrazolo[3,4-d]pyrimidin-4-yloxy)-3-isopropoxypropanamido)-N,N-dimethylnicotinamide]", "EC50": 4300}
{"smiles": "Cc1ccc(C)c(-n2ncc3c(O[C@@H](COCCO)C(=O)Nc4ccc(Cl)cn4)ncnc32)c1", "note": "[Example 179, (2S)—N-(5-chloropyridin-2-yl)-2-(1-(2,5-dimethylphenyl)-1H-pyrazolo[3,4-d]pyrimidin-4-yloxy)-3-(2-hydroxyethoxy)propanamide]", "EC50": 620}
